Experimental findings from ChEMBL document CHEMBL5715260, “Selectivity Literature for EUbOPEN Chemogenomic Library” (2024) are described below.

Assay [1] deals with T1, Hepatocyte nuclear factor 4-alpha (Homo sapiens) (UniProt P41235).
T1 sequence (whole entry): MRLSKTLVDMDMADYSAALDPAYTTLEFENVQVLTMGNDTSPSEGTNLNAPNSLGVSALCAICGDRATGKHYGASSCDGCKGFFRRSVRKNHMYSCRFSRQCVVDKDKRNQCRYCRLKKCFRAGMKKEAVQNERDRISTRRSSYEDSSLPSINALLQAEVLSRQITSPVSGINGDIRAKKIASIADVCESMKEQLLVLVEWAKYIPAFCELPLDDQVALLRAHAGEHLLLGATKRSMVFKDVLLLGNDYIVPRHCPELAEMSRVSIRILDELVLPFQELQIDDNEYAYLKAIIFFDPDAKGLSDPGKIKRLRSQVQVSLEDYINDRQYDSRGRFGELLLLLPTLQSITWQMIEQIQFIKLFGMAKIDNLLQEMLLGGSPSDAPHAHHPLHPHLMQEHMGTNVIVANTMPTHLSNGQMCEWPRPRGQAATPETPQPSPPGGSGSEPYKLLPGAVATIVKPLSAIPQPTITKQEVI
As to the kind of experiment: Selectivity interaction (Reporter gene assay) EUB0000571a HNF4A. More on the design: recommended concentration 1 uM.

In assay [2] the target is T2, Nuclear receptor subfamily 2 group C member 1 (Homo sapiens) (UniProt P13056).
T2 sequence (whole entry): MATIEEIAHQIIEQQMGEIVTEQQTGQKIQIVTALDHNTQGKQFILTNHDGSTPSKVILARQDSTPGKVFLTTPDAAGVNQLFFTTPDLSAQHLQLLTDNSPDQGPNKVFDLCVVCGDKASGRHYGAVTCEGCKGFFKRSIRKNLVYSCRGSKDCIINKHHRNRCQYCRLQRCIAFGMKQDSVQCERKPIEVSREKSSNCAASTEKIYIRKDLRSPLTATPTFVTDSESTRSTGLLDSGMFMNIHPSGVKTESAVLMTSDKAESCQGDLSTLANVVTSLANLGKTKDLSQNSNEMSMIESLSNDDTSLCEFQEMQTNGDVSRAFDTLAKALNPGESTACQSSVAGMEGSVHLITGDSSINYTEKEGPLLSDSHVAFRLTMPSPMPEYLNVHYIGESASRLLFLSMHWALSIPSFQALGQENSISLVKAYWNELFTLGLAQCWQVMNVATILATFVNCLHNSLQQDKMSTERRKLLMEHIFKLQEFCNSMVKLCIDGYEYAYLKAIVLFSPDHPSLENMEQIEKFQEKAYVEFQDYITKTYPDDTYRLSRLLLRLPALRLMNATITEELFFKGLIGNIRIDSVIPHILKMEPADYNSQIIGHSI
As to the kind of experiment: Selectivity interaction (Reporter gene assay) EUB0000571a NR2C1. Also on record: recommended concentration 1 uM. For orientation: A reporter such as luciferase makes a cellular process visible.

Assay [3] deals with Nuclear receptor subfamily 2 group E member 1 (Homo sapiens) (UniProt Q9Y466). As to the kind of experiment: Selectivity interaction (Reporter gene assay) EUB0000571a NR2E1. More on the design: recommended concentration 1 uM.
In assay [4] the target is Nuclear receptor subfamily 4immunitygroup A member 1 (Homo sapiens) (UniProt P22736). Briefly: Selectivity interaction (Reporter gene assay) EUB0000571a NR4A1. Also on record: recommended concentration 1 uM.
The target of assay [5] is Steroidogenic factor 1 (Homo sapiens) (UniProt Q13285). As to the kind of experiment: Selectivity interaction (Reporter gene assay) EUB0000571a NR5A1. More on the design: recommended concentration 1 uM.
The target in assay [6] is T3, Alpha trans-inducing protein (Human alphaherpesvirus 1) (UniProt A0A5J6DW59). Briefly: Selectivity interaction (Reporter gene assay) EUB0000571a UL48. More on the design: recommended concentration 1 uM.
The target of assay [7] is T4, Retinoic acid receptor RXR-alpha (Homo sapiens) (UniProt P19793).
T4 sequence (whole entry): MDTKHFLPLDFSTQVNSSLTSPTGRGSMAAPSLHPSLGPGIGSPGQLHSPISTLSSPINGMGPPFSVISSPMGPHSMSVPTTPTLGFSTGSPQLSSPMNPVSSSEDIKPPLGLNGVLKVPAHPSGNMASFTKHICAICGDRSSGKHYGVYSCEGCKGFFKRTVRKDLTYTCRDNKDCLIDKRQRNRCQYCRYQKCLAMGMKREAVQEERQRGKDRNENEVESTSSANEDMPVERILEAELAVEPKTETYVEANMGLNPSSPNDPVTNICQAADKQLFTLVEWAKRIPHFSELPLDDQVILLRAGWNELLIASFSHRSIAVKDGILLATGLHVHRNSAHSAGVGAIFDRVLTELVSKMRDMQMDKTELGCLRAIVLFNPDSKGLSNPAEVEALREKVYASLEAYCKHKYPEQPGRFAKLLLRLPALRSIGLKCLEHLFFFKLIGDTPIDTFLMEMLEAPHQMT
As to the kind of experiment: Selectivity interaction (Reporter gene assay) EUB0000571a RXRA. Also on record: recommended concentration 1 uM. To be noted: reference bexarotene 1 uM, Selectivity number of off-targets 0.0, Selectivity number of targets 1.0, Source Knowledge inhouse.

The target in assay [8] is T5, Peroxisome proliferator-activated receptor gamma (Homo sapiens) (UniProt P37231).
T5 sequence (whole entry): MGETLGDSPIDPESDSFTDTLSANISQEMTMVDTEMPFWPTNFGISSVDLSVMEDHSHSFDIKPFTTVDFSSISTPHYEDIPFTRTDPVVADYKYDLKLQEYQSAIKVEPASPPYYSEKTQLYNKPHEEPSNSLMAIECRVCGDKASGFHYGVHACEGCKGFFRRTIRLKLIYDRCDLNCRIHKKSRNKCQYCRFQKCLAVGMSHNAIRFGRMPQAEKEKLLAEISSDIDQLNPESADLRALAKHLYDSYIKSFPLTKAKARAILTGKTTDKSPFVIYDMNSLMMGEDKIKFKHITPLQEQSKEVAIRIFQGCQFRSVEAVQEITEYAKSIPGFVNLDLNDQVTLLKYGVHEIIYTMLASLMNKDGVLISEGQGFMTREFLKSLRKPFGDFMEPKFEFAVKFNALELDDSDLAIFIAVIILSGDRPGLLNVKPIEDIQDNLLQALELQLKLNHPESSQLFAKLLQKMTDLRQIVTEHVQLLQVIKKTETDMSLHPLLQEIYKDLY
As to the kind of experiment: Selectivity interaction (Reporter gene assay) EUB0000581a PPARG. Also on record: recommended concentration 1 uM. The following applies: screened at recom. conc., Selectivity number of off-targets 1.0, Selectivity number of targets 19.0, Source Knowledge inhouse.

Assay [9] has as its target T1, Hepatocyte nuclear factor 4-alpha (Homo sapiens). Briefly: Selectivity interaction (Reporter gene assay) EUB0000581a HNF4A. More on the design: recommended concentration 1 uM.
The target in assay [10] is T2, Nuclear receptor subfamily 2 group C member 1 (Homo sapiens). Briefly: Selectivity interaction (Reporter gene assay) EUB0000581a NR2C1. More on the design: recommended concentration 1 uM.
Assay [11] deals with Nuclear receptor subfamily 2 group E member 1 (Homo sapiens) (UniProt Q9Y466). As to the kind of experiment: Selectivity interaction (Reporter gene assay) EUB0000581a NR2E1. More on the design: recommended concentration 1 uM.
Assay [12] addresses Nuclear receptor subfamily 4immunitygroup A member 1 (Homo sapiens) (UniProt P22736). As to the kind of experiment: Selectivity interaction (Reporter gene assay) EUB0000581a NR4A1. More on the design: recommended concentration 1 uM.
Assay [13] addresses Steroidogenic factor 1 (Homo sapiens) (UniProt Q13285). As to the kind of experiment: Selectivity interaction (Reporter gene assay) EUB0000581a NR5A1. More on the design: recommended concentration 1 uM.
Assay [14] concerns the target T3, Alpha trans-inducing protein (Human alphaherpesvirus 1). As to the kind of experiment: Selectivity interaction (Reporter gene assay) EUB0000581a UL48. More on the design: recommended concentration 1 uM.
For assay [15], the target named is T4, Retinoic acid receptor RXR-alpha (Homo sapiens). As to the kind of experiment: Selectivity interaction (Reporter gene assay) EUB0000581a RXRA. To be noted: reference bexarotene 1 uM, Selectivity number of off-targets 0.0, Selectivity number of targets 1.0, Source Knowledge inhouse. Also on record: recommended concentration 1 uM.
Assay [16] has as its target T1, Hepatocyte nuclear factor 4-alpha (Homo sapiens). Briefly: Selectivity interaction (Reporter gene assay) EUB0000572aCl HNF4A. Also on record: recommended concentration 3 uM.
Assay [17] addresses T2, Nuclear receptor subfamily 2 group C member 1 (Homo sapiens). Briefly: Selectivity interaction (Reporter gene assay) EUB0000572aCl NR2C1. Also on record: recommended concentration 3 uM. The following applies: screened at recom. conc., Selectivity number of off-targets 2.0, Selectivity number of targets 5.0, Source Knowledge inhouse.
Assay [18] concerns the target Nuclear receptor subfamily 2 group E member 1 (Homo sapiens) (UniProt Q9Y466). Briefly: Selectivity interaction (Reporter gene assay) EUB0000572aCl NR2E1. The following applies: screened at recom. conc., Selectivity number of off-targets 2.0, Selectivity number of targets 5.0, Source Knowledge inhouse. Also on record: recommended concentration 3 uM.
Assay [19] addresses Nuclear receptor subfamily 4immunitygroup A member 1 (Homo sapiens) (UniProt P22736). As to the kind of experiment: Selectivity interaction (Reporter gene assay) EUB0000572aCl NR4A1. More on the design: recommended concentration 3 uM.
In assay [20] the target is Steroidogenic factor 1 (Homo sapiens) (UniProt Q13285). As to the kind of experiment: Selectivity interaction (Reporter gene assay) EUB0000572aCl NR5A1. Also on record: recommended concentration 3 uM.
Assay [21] concerns the target T3, Alpha trans-inducing protein (Human alphaherpesvirus 1). As to the kind of experiment: Selectivity interaction (Reporter gene assay) EUB0000572aCl UL48. Also on record: recommended concentration 3 uM.
For assay [22], the target named is T4, Retinoic acid receptor RXR-alpha (Homo sapiens). As to the kind of experiment: Selectivity interaction (Reporter gene assay) EUB0000572aCl RXRA. To be noted: reference bexarotene 1 uM, Selectivity number of off-targets 0.0, Selectivity number of targets 1.0, Source Knowledge inhouse. More on the design: recommended concentration 3 uM.
Assay [23] deals with T1, Hepatocyte nuclear factor 4-alpha (Homo sapiens). As to the kind of experiment: Selectivity interaction (Reporter gene assay) EUB0000574a HNF4A. More on the design: recommended concentration 10 uM.
Assay [24] addresses T2, Nuclear receptor subfamily 2 group C member 1 (Homo sapiens). Briefly: Selectivity interaction (Reporter gene assay) EUB0000574a NR2C1. Also on record: recommended concentration 10 uM.
In assay [25] the target is Nuclear receptor subfamily 2 group E member 1 (Homo sapiens) (UniProt Q9Y466). Briefly: Selectivity interaction (Reporter gene assay) EUB0000574a NR2E1. Also on record: recommended concentration 10 uM.
In assay [26] the target is Nuclear receptor subfamily 4immunitygroup A member 1 (Homo sapiens) (UniProt P22736). As to the kind of experiment: Selectivity interaction (Reporter gene assay) EUB0000574a NR4A1. Also on record: recommended concentration 10 uM.
The target of assay [27] is Steroidogenic factor 1 (Homo sapiens) (UniProt Q13285). As to the kind of experiment: Selectivity interaction (Reporter gene assay) EUB0000574a NR5A1. More on the design: recommended concentration 10 uM.
The target of assay [28] is T3, Alpha trans-inducing protein (Human alphaherpesvirus 1). As to the kind of experiment: Selectivity interaction (Reporter gene assay) EUB0000574a UL48. Also on record: recommended concentration 10 uM.
The target in assay [29] is T4, Retinoic acid receptor RXR-alpha (Homo sapiens). As to the kind of experiment: Selectivity interaction (Reporter gene assay) EUB0000574a RXRA. The following applies: reference bexarotene 1 uM, Selectivity number of off-targets 0.0, Selectivity number of targets 1.0, Source Knowledge inhouse. Also on record: recommended concentration 10 uM.

Chain of Steroidogenic factor 1 (Homo sapiens) (Q13285 whole entry): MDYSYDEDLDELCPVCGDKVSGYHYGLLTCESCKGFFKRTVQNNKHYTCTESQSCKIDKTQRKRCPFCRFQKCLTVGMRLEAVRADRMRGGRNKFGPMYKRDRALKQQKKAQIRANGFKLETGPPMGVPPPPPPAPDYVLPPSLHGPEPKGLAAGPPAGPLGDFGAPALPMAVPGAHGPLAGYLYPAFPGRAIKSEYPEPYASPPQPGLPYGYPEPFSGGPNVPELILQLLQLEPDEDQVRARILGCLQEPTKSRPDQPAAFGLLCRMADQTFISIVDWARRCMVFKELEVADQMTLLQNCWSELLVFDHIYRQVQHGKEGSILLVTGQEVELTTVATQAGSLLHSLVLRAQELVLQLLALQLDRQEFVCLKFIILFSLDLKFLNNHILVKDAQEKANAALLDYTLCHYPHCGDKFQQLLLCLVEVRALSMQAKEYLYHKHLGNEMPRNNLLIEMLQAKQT
Chain of Nuclear receptor subfamily 4immunitygroup A member 1 (Homo sapiens) (P22736 whole entry): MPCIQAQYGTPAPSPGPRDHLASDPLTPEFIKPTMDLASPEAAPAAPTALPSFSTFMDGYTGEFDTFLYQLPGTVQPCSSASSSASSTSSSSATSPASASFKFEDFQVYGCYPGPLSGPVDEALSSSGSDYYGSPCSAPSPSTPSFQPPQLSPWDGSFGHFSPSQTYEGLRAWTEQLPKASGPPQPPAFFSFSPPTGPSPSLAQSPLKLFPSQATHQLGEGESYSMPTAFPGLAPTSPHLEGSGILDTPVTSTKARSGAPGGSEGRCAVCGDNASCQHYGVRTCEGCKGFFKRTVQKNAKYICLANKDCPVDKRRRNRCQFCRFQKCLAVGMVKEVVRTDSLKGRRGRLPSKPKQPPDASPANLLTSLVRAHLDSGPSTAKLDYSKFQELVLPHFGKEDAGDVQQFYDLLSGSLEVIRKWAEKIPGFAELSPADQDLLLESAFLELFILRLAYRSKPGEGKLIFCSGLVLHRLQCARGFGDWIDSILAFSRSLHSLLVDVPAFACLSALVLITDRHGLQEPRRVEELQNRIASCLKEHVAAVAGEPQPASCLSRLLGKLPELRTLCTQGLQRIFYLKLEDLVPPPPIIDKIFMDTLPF
Chain of Nuclear receptor subfamily 2 group E member 1 (Homo sapiens) (Q9Y466 whole entry): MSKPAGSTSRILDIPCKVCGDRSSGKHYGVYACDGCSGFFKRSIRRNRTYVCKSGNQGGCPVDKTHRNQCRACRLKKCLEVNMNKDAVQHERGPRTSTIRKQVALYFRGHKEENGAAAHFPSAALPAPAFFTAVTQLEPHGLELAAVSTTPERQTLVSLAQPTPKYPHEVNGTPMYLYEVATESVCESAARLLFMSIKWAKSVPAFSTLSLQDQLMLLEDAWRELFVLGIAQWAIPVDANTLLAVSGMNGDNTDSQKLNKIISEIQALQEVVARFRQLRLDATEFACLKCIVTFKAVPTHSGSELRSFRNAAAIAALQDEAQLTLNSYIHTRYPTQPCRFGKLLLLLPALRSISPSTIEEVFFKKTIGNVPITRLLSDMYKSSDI
T3 sequence (A0A5J6DW59 as listed by the source): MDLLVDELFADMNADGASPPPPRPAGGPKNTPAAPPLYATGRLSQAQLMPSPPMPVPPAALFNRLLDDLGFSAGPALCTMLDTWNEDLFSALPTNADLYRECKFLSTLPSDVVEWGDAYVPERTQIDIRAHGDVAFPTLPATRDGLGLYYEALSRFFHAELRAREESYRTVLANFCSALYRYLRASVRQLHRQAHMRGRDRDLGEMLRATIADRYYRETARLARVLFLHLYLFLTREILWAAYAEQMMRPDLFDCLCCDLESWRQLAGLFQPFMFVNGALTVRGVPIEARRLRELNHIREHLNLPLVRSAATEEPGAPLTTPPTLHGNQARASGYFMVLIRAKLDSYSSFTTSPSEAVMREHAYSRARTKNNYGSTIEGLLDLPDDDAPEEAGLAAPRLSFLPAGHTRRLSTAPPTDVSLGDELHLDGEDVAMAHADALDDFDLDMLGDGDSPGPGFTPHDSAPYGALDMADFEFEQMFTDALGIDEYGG

On to `COC(=O)C(Cc1ccc(OCCn2c(=O)sc3cc(C(=O)c4ccccc4)ccc32)cc1)C(=O)OC`, for which the results for the Fold activation in assay [1], in assay [2] and in assay [5] were 1.06, 1.38 and 1.22, respectively. In addition, the Remaining activity in assay [3] stood at 0.849; in assay [4] it was 0.966. Further, the P-value in [6] was determined as 0.0005. The compound also returned a Relative activation in assay [7] of 0.67%.
With `CC(C)c1ccc(CC(=O)N2CCC[C@@H](c3cccc(OC(C)(C)C(=O)O)c3)C2)cc1`, the Fold activation came out at 3.39 in [8]; 1.11 in assay [9]; 1.13 in [10]; 1.08 in [12]; 1.08 in assay [13]. For the same compound, the Remaining activity in assay [11] is 0.846. Moreover, in assay [14], the P-value stood at 0.0017. In assay [15], this compound had a Relative activation of 0.86%.
On to `O=C(O)Cc1cccc(OCCCN(Cc2cccc(C(F)(F)F)c2Cl)CC(c2ccccc2)c2ccccc2)c1`, for which the Fold activation in [16] amounted to 1.18; in assay [17], 1.98; in assay [18], 1.82; in [19], 1.4; in assay [20] it was 1.13. This compound also displayed a P-value in assay [21] of 2.13e-05. Moreover, in assay [22], the Relative activation was 0.674%.
Regarding `CO[C@H]1/C=C/O[C@@]2(C)Oc3c(C)c(O)c4c(O)c(c(/C=N/N5CCN(C)CC5)c(O)c4c3C2=O)NC(=O)/C(C)=C\C=C\[C@H](C)[C@H](O)[C@@H](C)[C@@H](O)[C@@H](C)[C@H](OC(C)=O)[C@@H]1C`, the Fold activation in assay [23] is 1.04; in assay [24] it was 1.14; in assay [25] it was 1.33; in [26], 1.04. This compound also registered a Remaining activity in assay [27] of 0.952. In [28], this compound gave a P-value of 0.000527. In assay [29], this compound registered a Relative activation of 0.683%.
